IC50 data for 15 compounds are collected here from ChEMBL document CHEMBL1148637, “The combi-targeting concept: synthesis of stable nitrosoureas designed to inhibit the epidermal growth factor receptor (EGFR)” (J Med Chem, 2006).

One may read the IC50 as the midpoint of a concentration-inhibition curve.

For test [1], the target named is Epidermal growth factor receptor (Homo sapiens, UniProt P00533). Description: Inhibition of EGFR tyrosine kinase.
In test [2] the test system is NIH3T3. Description: Inhibition of serum-stimulated proliferation of mouse NIH3T3 cell line after 24 hrs. The conditions noted are these: NIH3T3, 24 h. It is filed as functional, cell-based.

Epidermal growth factor receptor, sequence (P00533 whole entry): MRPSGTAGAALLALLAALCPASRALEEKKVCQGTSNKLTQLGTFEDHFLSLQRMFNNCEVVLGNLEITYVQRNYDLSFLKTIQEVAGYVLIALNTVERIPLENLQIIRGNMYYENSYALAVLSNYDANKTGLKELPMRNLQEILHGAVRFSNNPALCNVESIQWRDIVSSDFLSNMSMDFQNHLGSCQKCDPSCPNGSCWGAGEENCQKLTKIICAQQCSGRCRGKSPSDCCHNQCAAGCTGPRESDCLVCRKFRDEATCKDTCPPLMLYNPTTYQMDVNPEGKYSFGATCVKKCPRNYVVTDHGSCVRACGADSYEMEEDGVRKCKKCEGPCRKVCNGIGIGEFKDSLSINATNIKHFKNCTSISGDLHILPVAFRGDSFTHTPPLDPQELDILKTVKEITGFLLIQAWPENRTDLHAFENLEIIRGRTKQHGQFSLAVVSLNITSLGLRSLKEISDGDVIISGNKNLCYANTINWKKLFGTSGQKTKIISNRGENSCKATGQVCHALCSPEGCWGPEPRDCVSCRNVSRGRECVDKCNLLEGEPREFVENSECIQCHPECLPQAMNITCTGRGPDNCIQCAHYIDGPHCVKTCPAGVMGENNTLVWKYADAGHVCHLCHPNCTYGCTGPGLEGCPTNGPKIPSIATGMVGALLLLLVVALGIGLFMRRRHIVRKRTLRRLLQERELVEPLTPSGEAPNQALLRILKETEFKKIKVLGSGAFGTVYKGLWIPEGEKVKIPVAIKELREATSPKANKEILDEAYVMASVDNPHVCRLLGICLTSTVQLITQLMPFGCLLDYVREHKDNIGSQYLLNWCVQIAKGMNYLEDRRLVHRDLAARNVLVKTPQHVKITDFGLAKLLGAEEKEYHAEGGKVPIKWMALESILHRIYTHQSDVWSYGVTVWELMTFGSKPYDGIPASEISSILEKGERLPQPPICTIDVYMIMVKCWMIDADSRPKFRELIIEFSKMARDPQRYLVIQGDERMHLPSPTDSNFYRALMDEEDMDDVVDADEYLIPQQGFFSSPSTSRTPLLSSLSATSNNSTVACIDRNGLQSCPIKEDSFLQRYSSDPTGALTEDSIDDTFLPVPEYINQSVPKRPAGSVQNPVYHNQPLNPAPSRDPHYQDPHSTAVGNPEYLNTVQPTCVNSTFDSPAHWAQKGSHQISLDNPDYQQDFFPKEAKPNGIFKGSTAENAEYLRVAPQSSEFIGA

As to `O=C(NCCCl)Nc1ccc2ncnc(Nc3cccc(Br)c3)c2c1`, the figures for the concentration for half-maximal inhibition (IC50) in test [1] and in test [2] were 0.018 µM and 35.9 µM, respectively.
In the same order, the values of `Cc1cccc(Nc2ncnc3ccc(NC(=O)NCCCl)cc23)c1` are 0.676 µM and 31 µM.
`CNc1ccc2ncnc(Nc3cccc(C)c3)c2c1`: the half-maximal inhibitory concentration (IC50) was determined as 0.011 µM in test [1] and 42.8 µM in test [2].
As for `CNc1ccc2ncnc(Nc3cccc(Cl)c3)c2c1`, the 50% inhibitory concentration (IC50) came to 0.004 µM in test [1] and 49.8 µM in test [2].
In test [2], `Cc1cccc(Nc2ncnc3ccc(N(C)C(=O)N(CCCl)N=O)cc23)c1` yielded a 50% inhibitory concentration (IC50) of 16.5 µM.
For the compound `CN(C(=O)N(CCCl)N=O)c1ccc2ncnc(Nc3cccc(Cl)c3)c2c1`, the values for the IC50 in test [1] and in test [2] were 0.204 µM and 11.7 µM, respectively.
For the compound `O=C(NCCCl)Nc1ccc2ncnc(Nc3cccc(Cl)c3)c2c1`, the concentration for half-maximal inhibition (IC50) in test [1] was determined as 0.022 µM; in test [2], 157 µM.
For `Cc1cccc(Nc2ncnc3ccc(NC(=O)N(CCCl)N=O)cc23)c1`, in that order: 1.06 µM and 78.5 µM.
On to `O=NN(CCCl)C(=O)Nc1ccc2ncnc(Nc3cccc(Cl)c3)c2c1`, for which, in test [2], it took 157 µM to reach half-maximal inhibition (IC50).
On to `O=NN(CCCl)C(=O)Nc1ccc2ncnc(Nc3cccc(Br)c3)c2c1`, for which the IC50 in test [1] was 0.047 µM; in test [2], 36.4 µM.
As for `CN(C(=O)N(CCCl)N=O)c1ccc2ncnc(Nc3cccc(Br)c3)c2c1`, the values for the IC50 in test [1] and in test [2] were 0.294 µM and 10.8 µM, respectively.
`Cc1cccc(Nc2ncnc3ccc(N)cc23)c1` had a concentration for half-maximal inhibition (IC50) in test [2] of 44.2 µM.
Still for that read-out and setting: then `Nc1ccc2ncnc(Nc3cccc(Cl)c3)c2c1`, with 97 µM.
On to `CNc1ccc2ncnc(Nc3cccc(Br)c3)c2c1`, for which the half-maximal inhibitory concentration (IC50) amounted to 0.005 µM in test [1] and 17.6 µM in test [2].
`Nc1ccc2ncnc(Nc3cccc(Br)c3)c2c1`: half-maximal inhibition in test [2] (IC50) required 26.7 µM.
